# Measurements: ChEMBL document CHEMBL1201862, “PubChem BioAssay data set” (2004)
# Activity calls are given as the source filed them.
# What was measured:
# [1] = biological target: T1, Kappa-type opioid receptor (Homo sapiens, UniProt P41145); type: functional
# [2] = biological target: T1, Kappa-type opioid receptor; type: functional; remark: listed apart in the source
# [3] = biological target: Photoreceptor-specific nuclear receptor (Homo sapiens, UniProt Q9Y5X4); type: functional, cell-based;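 also: CHO-S cells with Gal4-NCOR and VP16-NR2E3 two-hybrid luciferase reporter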
# [4] = biological target: T2, Mucolipin-3 (Homo sapiens, UniProt Q8TDD5); test: Dose response cell-based high-throughput screening assay for agonists of the transient receptor potential channel ML3 (TRPML3). [Related pubchem assays: 1526, 1424, 1448 ]; type: functional
# T2 sequence (Q8TDD5 whole entry): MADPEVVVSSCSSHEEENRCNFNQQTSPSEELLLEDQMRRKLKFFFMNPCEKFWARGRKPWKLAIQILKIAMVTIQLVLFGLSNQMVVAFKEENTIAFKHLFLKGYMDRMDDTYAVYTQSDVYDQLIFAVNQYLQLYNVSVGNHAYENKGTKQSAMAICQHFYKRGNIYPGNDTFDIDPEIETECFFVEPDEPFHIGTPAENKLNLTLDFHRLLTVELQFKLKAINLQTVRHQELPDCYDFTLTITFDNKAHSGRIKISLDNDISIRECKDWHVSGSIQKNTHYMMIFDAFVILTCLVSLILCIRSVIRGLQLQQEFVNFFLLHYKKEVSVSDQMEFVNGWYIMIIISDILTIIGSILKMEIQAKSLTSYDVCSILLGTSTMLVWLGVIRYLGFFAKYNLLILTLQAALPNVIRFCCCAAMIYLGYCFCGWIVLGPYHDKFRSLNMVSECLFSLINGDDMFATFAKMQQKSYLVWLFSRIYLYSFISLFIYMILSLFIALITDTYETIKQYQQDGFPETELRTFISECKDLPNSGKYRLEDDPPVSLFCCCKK
# [5] = biological target: T3, Beta-galactosidase (Escherichia coli, UniProt Q8VNN2); type: functional
# [6] = biological target: T3, Beta-galactosidase; test: beta-galactosidase enzyme inhibitors and activators, dose response, artefact control for CCR6 antagonist project, biochemical, E. coli enzyme, set 3 (AID 504712); type: functional
# [7] = biological target: Ion channel NompC (Danio rerio, UniProt Q7T1G6); test: Fluorescence counterscreen assay for TRPML3 agonists: dose response cell-based high-throughput screening assay to identify agonists of the transient receptor potential channel N1 (TRPN1). [Related pubchem assays: 1526, 1424, 1448 ]; type: functional
# [8] = biological target: Hexokinase HKDC1 (Homo sapiens, UniProt Q2TB90); test: HKDC1 hexokinase activators, dose response, biochemical, W721R variant (AID 504730); type: functional
# [9] = biological target: Hexokinase-1 (Homo sapiens, UniProt P19367); test: hexokinase 1 activators, dose response, selectivity assay for HKDC1 activator project, biochemical (AID 504762); type: functional
# [10] = biological target: Dual specificity tyrosine-phosphorylation-regulated kinase 1A (Rattus norvegicus, UniProt Q63470); type: biochemical, Homo sapiens
# [11] = biological target: T4, Runt-related transcription factor 1/Core-binding factor subunit beta (Homo sapiens, UniProt Q01196+Q13951); test: Confirmation of compounds inhibiting the binding between the RUNX1 Runt domain and CBFb-SMMHC via a fluorescence resonance energy transfer (FRET) assay. [Related pubchem assays (depositor defined):AID1434, AID1438, AID1496, AID1550, AID1645]; type: protein assay
# [12] = biological target: T4, Runt-related transcription factor 1/Core-binding factor subunit beta; test: Confirmation of compounds inhibiting the binding between the RUNX1 Runt domain and CBFb-SMMHC via a time resolved fluorescence resonance energy transfer (TR-FRET) assay. [Related pubchem assays (depositor defined):AID1434, AID1438, AID1496, AID1560, AID1645]; type: protein assay
# [13] = biological target: T4, Runt-related transcription factor 1/Core-binding factor subunit beta; test: inhibitors of RUNX1 Runt–CBFb-SMMHC binding, primary screen, biochemical, FRET, Cerulean-Runt, Venus-CBFb-SMMHC, uHTS (AID 1434); type: protein assay;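 also: partner is the CBFb-SMMHC leukemia fusion protein rather than wild-type CBFb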
# [14] = biological target: T4, Runt-related transcription factor 1/Core-binding factor subunit beta; test: inhibitors of RUNX1 Runt–CBFb-SMMHC binding, biochemical, TR-FRET (AID 1438); type: protein assay
# [15] = biological target: Voltage-dependent T-type calcium channel subunit alpha-1H (Homo sapiens, UniProt O95180); test: Cav3.2 T-type channel inhibitors, cell-based, synthetic library set 1, calcium flux (AID 493022); type: functional
# [16] = biological target: Hexokinase (Trypanosoma brucei, UniProt Q38C41); test: Confirmation assay for inhibitors of Trypanosoma brucei hexokinase 1-Analogue-first series. [Related pubchem assays (depositor defined):AID1430, AID1632, AID2516, AID2560, AID2579, AID2600, AID449725, AID492951]; type: functional
# [17] = biological target: Delta-type opioid receptor (Homo sapiens, UniProt P41143); test: SAR Analysis of Antagonists of the DOR Receptor using an Image-Based Assay - Set 3. [Related pubchem assays (depositor defined):AID1777, AID1785]; type: functional;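 also: U2OS cells expressing DOR1 and beta-arrestin GFP stimulated with 100 nM SNC80; imaging of GFP-tagged beta-arrestin moving into spots after receptor activation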
# [18] = biological target: Mu-type opioid receptor (Homo sapiens, UniProt P35372); test: SAR Analysis of Antagonists of the MOR Receptor using an Image-Based Assay - Set 3. [Related pubchem assays (depositor defined):AID1777, AID1785, AID1786, AID1966, AID2133, AID2136, AID2284, AID2285, AID2420]; type: functional
# [19] = biological target: Nonstructural protein 1 (Influenza A virus, UniProt Q194T2); type: functional, Influenza A virus (A/California/07/2009(H1N1))
# T4 sequence (Q01196 whole entry, the tested form may be a part): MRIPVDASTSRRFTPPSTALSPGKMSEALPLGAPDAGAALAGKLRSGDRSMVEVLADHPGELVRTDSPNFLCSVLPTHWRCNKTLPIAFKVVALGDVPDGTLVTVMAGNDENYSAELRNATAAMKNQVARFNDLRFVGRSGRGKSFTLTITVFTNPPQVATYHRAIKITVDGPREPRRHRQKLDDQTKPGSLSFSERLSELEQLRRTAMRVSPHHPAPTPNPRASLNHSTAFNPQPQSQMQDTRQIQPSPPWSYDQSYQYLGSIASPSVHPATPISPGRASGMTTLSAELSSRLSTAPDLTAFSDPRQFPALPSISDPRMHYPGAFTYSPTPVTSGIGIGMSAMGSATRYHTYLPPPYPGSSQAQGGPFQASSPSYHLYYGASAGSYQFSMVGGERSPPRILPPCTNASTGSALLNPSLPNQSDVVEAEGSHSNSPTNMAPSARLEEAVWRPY
# T4 sequence (Q13951 whole entry, the tested form may be a part): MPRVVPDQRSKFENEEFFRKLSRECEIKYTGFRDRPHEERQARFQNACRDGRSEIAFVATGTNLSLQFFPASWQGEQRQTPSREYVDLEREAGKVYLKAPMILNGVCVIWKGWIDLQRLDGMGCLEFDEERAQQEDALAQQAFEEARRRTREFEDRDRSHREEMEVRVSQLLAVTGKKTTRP
# T1 sequence (P41145 whole entry): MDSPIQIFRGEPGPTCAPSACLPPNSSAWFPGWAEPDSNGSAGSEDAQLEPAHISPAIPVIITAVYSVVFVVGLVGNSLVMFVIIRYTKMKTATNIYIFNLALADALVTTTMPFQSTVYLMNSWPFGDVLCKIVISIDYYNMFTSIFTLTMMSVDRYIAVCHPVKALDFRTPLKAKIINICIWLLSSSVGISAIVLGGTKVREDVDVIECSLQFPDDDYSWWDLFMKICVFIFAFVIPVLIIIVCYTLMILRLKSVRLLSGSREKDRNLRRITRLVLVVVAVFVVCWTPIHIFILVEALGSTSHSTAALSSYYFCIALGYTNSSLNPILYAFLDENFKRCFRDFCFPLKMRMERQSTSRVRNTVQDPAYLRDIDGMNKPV
# T3 sequence (Q8VNN2 whole entry): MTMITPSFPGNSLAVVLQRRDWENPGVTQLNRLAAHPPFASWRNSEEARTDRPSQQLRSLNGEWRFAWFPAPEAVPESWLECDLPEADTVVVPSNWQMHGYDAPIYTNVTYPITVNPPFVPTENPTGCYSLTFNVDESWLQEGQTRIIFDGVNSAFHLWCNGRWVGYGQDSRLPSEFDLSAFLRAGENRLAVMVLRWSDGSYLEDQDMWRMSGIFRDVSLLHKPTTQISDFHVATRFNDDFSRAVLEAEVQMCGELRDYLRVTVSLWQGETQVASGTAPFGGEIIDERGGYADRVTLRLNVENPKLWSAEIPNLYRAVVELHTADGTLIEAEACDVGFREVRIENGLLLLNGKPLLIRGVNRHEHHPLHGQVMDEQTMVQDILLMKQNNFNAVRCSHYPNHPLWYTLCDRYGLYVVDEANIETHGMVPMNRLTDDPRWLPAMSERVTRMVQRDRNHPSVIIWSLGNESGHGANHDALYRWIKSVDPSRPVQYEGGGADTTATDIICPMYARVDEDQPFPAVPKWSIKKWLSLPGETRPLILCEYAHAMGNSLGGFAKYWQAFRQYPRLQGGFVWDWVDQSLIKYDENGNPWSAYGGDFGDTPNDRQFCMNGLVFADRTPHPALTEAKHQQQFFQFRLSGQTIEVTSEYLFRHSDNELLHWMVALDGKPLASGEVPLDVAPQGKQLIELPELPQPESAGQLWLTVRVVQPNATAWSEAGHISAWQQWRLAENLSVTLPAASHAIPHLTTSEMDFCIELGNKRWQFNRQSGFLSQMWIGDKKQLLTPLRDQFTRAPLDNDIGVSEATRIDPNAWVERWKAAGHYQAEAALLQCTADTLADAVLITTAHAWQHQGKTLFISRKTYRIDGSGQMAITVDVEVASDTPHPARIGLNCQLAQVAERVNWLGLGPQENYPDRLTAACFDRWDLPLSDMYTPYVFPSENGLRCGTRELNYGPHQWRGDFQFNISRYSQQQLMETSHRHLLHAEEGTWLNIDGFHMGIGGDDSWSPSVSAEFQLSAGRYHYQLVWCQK
# Ion channel NompC, sequence (Q7T1G6 whole entry): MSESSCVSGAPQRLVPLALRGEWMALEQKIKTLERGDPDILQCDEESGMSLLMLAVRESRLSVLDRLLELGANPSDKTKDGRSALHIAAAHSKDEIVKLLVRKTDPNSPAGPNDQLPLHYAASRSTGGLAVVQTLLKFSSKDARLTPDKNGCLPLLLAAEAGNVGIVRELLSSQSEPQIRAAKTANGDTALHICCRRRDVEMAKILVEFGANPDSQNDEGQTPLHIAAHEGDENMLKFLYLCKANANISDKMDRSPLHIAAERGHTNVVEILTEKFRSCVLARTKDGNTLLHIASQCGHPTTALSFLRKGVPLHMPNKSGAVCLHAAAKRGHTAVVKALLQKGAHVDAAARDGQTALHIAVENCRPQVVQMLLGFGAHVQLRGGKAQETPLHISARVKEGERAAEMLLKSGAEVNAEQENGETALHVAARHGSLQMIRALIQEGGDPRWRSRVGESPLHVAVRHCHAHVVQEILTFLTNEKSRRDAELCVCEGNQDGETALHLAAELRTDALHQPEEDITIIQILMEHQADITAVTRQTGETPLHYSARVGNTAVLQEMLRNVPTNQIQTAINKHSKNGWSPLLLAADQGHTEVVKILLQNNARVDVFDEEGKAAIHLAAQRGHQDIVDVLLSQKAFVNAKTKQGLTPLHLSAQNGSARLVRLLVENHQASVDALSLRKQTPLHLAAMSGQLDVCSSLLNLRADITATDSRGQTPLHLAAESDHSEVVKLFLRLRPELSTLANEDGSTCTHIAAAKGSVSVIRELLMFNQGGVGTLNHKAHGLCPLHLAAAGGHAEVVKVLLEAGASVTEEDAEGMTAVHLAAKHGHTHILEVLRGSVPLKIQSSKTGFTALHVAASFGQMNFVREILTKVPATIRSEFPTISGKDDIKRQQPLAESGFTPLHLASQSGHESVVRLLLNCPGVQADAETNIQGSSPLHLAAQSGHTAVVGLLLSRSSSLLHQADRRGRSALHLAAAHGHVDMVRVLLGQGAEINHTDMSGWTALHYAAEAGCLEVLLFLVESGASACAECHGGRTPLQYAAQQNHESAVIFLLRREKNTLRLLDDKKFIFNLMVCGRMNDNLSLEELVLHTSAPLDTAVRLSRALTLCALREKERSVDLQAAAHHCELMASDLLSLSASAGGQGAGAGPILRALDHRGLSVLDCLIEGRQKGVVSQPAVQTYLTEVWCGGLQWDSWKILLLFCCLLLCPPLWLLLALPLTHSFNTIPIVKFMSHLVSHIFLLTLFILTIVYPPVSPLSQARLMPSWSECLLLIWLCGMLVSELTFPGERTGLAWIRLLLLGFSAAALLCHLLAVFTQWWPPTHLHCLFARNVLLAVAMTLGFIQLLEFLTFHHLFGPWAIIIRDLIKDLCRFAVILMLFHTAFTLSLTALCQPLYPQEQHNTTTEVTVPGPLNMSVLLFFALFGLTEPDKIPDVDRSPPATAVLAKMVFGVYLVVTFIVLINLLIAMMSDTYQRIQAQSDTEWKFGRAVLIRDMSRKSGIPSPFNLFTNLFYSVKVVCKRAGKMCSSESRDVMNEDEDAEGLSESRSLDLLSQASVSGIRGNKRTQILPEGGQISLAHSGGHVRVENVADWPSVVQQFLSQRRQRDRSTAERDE
# Delta-type opioid receptor, sequence (P41143 whole entry): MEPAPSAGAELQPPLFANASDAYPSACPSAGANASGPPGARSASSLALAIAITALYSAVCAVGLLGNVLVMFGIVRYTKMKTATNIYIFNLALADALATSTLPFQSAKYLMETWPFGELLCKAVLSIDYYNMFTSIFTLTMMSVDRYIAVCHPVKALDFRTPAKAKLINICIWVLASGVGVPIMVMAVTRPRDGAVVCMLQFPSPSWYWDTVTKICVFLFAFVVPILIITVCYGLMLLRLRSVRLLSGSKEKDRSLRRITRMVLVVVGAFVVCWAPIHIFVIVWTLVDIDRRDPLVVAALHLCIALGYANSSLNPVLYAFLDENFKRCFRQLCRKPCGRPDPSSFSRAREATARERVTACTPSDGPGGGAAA
# Photoreceptor-specific nuclear receptor, sequence (Q9Y5X4 whole entry, the tested form may be a part): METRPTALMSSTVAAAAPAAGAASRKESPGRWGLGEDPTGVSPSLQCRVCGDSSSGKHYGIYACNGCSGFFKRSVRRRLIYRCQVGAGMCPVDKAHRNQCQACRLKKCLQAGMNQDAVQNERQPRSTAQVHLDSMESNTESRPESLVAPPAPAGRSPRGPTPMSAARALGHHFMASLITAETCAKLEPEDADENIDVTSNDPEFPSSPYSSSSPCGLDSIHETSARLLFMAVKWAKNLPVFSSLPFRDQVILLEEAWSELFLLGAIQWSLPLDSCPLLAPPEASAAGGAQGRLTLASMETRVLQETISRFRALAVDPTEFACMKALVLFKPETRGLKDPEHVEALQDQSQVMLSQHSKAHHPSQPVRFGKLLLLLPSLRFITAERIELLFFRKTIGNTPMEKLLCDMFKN
# Hexokinase, sequence (Q38C41 whole entry): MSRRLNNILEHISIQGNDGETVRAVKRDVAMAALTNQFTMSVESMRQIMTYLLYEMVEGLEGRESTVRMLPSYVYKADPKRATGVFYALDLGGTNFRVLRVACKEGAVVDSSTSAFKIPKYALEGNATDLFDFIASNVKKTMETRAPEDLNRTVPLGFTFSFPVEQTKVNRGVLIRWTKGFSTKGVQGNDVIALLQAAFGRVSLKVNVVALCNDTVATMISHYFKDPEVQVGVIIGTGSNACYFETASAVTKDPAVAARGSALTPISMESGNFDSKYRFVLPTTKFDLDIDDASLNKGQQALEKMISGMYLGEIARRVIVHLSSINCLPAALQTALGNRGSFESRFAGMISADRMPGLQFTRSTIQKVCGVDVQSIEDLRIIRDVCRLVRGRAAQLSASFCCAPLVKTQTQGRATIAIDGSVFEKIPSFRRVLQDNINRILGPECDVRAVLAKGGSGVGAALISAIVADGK
structure (smiles),measurement,setting,value
N=C1SCC(=O)N1c1ncc(Cc2ccccc2Cl)s1,IC50,[1],6.6 µM (active)
same,IC50,[2],> 32 µM
same,IC50,[3],3 µM (active)
same,EC50,[4],1.16 µM (active)
same,EC50,[5],> 31.5 µM (inactive)
same,IC50,[6],> 66.6 µM (inactive)
same,EC50,[7],> 29.9 µM (not active)
CCOC(=O)c1c(C)[nH]c(C2=NN=C(Nc3ccc(OCC)cc3)SC2)c1C,EC50,[8],19.4 µM (active)
same,EC50,[9],21.1 µM (inactive)
Cc1ccc(/C=C(\C#N)C(=O)Nc2cccc3ncccc23)o1,AC50,[10],0.701 µM (active)
same,IC50,[11],26.6 µM (active)
same,IC50,[12],> 25 µM (inactive)
same,IC50,[13],23.6 µM (active)
same,IC50,[14],17.4 µM (active)
O=C(COc1ccccc1Cl)Nc1nnc(-c2ccc3ccccc3c2)o1,EC50,[15],4.8 µM (active)
Cc1ccccc1N1Cc2ccccc2C1=O,IC50,[16],> 25 µM (inactive)
COc1ccc(N2CCN(CCCNC(=O)Cn3c(=O)c4cccn4c4c(C)ccnc43)CC2)cc1,IC50,[17],> 32 µM (inactive)
same,IC50,[18],> 32 µM (inactive)
Nc1[nH]n(-c2ccccc2)c(=O)c1N=Nc1ccc2c(c1)OCCO2,IC50,[19],28.8 µM (active)
